Data taken from patent US11174252B2, “Heterocyclic compounds as kinase inhibitors” (priority 2018, dated 2021).
pIC50: −log10 of the molar value. Where two headings read alike, the source gives them in different places.

Assays:
[1] = molecular target: CDK6 (Homo sapiens (Human), UniProt Q00534); assay: biochemical; format: biochemical
[2] = molecular target: CDK4 (Homo sapiens (Human), UniProt P11802); assay: In vitro kinase inhibition, luminescence (ADP-Glo) with retinoblastoma substrate; format: biochemical
[3] = molecular target: CDK2 (cyclin A) (Homo sapiens (Human), UniProt P24941); assay: Z'-LYTE kinase assay; format: biochemical
Description: IC50 values of compounds against CDK2 (cyclin A) were determined by Z'-LYTETM. […] The following equations were used for Z'-LYTETM Screening Assay Data Analysis.

[4] = system: DU4475; assay: Cancer cell proliferation assay, single agent; format: cell-based; conditions: Homo sapiens
[5] = molecular target: CDK1 (cyclin B) (Homo sapiens (Human), UniProt P06493); assay: Z'-LYTE kinase assay; format: biochemical
Source text: The following equations were used for Z′-LYTE™ Screening Assay Data Analysis.

[6] = system: MCF-7; assay: Cancer cell proliferation assay, single agent; format: cell-based; conditions: Homo sapiens
[7] = molecular target: FMS kinase (Homo sapiens (Human), UniProt P07333); assay: LanthaScreen kinase assay (ATP, fluorescent-PolyGT substrate, TR-FRET); format: biochemical
[8] = molecular target: PI3Kδ kinase (Homo sapiens (Human), UniProt O00329); assay: PI3Kδ kinase ADP-Glo assay (Reaction Biology Corporation); conditions: read-out: PI3Kδ IC50
[9] = DU-4475, DU4475 cells, treated for 24-168 hours, read-out: IC50 (nM) DU4475
[10] = MCF7, MCF-7 cells, treated for 24-168 hours, read-out: IC50 (nM) MCF-7
[11] = DU-4475, read-out: IC50 (nM) DU4475
[12] = MCF7, read-out: IC50 (nM) MCF-7

Chain of CDK4 (P11802 whole entry): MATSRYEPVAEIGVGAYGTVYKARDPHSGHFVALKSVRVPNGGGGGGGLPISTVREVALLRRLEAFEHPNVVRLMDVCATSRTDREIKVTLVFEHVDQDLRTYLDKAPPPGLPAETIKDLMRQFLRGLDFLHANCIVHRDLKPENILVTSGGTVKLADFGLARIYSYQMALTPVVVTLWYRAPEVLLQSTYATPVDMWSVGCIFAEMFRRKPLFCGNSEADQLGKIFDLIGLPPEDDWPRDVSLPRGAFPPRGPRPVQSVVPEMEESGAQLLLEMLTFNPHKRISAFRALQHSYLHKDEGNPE
Chain of CDK4 (P24385 whole entry partner): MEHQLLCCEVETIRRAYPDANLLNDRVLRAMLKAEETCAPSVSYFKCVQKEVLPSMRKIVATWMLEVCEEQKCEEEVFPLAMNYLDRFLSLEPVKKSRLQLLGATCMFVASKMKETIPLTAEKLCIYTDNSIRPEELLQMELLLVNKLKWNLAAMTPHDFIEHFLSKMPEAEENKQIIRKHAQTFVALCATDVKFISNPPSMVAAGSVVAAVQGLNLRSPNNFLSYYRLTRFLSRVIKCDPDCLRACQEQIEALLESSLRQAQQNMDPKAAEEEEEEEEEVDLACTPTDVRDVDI
Chain of CDK1 (cyclin B) (P06493 whole entry): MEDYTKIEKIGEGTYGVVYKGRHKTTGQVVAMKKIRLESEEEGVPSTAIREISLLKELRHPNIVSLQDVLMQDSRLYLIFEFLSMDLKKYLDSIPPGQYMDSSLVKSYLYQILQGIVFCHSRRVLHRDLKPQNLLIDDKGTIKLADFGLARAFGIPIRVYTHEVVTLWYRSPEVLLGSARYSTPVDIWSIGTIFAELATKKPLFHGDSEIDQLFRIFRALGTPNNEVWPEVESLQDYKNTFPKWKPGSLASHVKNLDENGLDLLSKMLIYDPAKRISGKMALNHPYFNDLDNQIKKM
Chain of CDK1 (cyclin B) (P14635 whole entry partner): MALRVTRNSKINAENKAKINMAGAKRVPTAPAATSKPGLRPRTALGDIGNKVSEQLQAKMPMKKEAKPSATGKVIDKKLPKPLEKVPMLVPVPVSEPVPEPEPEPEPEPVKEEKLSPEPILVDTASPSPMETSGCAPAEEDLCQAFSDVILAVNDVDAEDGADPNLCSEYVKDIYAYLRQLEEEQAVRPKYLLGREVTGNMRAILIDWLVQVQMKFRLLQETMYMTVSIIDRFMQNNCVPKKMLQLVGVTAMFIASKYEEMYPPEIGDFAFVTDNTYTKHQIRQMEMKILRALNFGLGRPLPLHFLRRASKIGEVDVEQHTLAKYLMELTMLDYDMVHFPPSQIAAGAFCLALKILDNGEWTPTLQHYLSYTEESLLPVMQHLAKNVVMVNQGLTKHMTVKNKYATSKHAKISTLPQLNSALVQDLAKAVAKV
Chain of FMS kinase (P07333 20-972): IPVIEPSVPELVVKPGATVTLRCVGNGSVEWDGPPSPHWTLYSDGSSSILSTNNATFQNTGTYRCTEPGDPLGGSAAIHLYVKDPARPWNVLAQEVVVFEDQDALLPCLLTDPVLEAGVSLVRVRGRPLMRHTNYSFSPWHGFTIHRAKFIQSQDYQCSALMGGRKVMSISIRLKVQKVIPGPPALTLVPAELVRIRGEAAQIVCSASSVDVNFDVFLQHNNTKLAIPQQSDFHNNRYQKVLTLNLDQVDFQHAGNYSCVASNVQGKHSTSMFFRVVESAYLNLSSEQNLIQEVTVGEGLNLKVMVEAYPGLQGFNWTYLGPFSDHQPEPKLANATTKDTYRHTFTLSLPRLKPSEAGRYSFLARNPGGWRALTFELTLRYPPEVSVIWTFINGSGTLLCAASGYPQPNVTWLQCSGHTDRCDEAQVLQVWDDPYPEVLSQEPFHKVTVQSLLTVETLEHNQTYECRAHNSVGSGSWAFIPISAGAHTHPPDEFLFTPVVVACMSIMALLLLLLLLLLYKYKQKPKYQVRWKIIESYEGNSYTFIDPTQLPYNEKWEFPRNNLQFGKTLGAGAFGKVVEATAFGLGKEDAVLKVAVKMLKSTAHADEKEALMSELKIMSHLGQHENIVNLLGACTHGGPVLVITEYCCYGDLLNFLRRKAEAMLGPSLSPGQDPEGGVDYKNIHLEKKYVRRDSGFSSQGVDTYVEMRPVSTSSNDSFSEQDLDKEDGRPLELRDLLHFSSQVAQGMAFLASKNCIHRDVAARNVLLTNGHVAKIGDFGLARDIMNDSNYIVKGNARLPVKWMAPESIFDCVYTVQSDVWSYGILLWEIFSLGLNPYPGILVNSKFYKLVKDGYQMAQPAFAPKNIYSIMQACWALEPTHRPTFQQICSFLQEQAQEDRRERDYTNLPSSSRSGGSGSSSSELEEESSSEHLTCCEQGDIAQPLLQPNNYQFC
Chain of PI3Kδ kinase (O00329 whole entry): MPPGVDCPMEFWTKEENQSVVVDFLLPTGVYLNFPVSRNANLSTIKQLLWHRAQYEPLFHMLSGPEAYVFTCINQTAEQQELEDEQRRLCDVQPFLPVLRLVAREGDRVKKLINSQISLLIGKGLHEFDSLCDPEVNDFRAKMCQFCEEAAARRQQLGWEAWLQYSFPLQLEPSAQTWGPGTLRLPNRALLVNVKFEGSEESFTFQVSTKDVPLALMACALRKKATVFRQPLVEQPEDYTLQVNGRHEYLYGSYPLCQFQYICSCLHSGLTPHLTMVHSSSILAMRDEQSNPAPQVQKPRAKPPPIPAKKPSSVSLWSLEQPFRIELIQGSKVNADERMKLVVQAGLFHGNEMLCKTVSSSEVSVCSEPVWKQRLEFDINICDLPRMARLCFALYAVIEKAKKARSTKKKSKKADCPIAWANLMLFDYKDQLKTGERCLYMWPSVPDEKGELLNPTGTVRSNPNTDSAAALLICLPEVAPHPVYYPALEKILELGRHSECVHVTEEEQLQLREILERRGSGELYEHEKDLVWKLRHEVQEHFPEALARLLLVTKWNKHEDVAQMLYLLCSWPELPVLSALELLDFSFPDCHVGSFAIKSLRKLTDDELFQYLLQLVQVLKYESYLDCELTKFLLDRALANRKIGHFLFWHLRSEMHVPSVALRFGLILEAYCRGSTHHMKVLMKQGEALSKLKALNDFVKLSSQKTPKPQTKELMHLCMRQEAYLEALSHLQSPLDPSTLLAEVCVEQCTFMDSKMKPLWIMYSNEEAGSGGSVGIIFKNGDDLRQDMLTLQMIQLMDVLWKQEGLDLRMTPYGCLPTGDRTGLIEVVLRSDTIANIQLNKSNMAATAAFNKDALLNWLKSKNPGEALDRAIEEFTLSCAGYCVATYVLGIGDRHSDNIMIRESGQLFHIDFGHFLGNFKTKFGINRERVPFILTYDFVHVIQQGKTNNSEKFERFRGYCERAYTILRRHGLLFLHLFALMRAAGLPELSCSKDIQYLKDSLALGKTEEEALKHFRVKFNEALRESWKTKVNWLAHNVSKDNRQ
Chain of PI3Kδ kinase (P27986 whole entry partner): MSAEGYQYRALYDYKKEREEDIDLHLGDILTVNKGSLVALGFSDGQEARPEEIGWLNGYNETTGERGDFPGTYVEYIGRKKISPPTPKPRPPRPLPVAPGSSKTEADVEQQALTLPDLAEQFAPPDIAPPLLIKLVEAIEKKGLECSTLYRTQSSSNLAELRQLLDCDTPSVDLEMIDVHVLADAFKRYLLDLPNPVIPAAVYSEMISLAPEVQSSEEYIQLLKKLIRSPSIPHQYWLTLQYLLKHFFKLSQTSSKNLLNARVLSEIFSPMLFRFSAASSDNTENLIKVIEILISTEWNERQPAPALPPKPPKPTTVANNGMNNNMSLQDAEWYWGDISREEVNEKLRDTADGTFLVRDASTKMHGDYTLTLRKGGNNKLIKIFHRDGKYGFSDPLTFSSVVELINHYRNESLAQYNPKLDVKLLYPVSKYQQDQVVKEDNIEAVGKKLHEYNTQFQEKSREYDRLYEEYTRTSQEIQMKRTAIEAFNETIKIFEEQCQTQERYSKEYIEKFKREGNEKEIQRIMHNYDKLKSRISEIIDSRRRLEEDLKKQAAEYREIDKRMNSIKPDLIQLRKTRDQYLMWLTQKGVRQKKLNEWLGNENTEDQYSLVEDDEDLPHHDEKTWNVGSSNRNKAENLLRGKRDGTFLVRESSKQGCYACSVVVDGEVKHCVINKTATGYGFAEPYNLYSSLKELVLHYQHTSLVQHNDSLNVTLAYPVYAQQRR

IC50 [4, 9] | IC50 [6, 10] | Compound | pIC50 [1] | pIC50 [2] | pIC50 [3] | pIC50 [5] | IC50 [4, 11] | IC50 [6, 12] | pIC50 [7] | pIC50 [8]
465 nM | 170 nM | CC(C)N1CCOc2c(F)cc(-c3nc(Nc4ccc(C5CCN(C)C5)cn4)ncc3F)cc21 (centres unmarked) [Compound 498, 5-fluoro-4-(8-fluoro-4-isopropyl-3,4-dihydro-2H-benzo[b][1,4]oxazin-6-yl)-N-(5-(1-methylpyrrolidin-3-yl)pyridin-2-yl)pyrimidin-2-amine] | 8.52 | 9.00 | 6.81 | 6.65 |  |  |  | 
 |  | CC(C)N1CCOc2c(F)cc(-c3nc(Nc4cc(C5CCN(C)CC5)no4)ncc3F)cc21 [Compound 495, N-(5-fluoro-4-(8-fluoro-4-isopropyl-3,4-dihydro-2H-benzo[b][1,4]oxazin-6-yl)pyrimidin-2-yl)-3-(1-methylpiperidin-4-yl)isoxazol-5-amine] |  |  | 8.70 | 8.30 | 310 nM | 110 nM |  | 
 |  | CC(C)CN1CCOc2c(F)cc(-c3nc(Nc4ccc(C5CCN(C)CC5)cn4)ncc3F)cc21 [Compound 479, 5-fluoro-4-(8-fluoro-4-isobutyl-3,4-dihydro-2H-benzo[b][1,4]oxazin-6-yl)-N-(5-(1-methylpiperidin-4-yl)pyridin-2-yl)pyrimidin-2-amine] | 8.30 | 8.60 | 7.36 | 6.67 |  | 240 nM | 5.59 | 
 |  | CC(C)N1CCOc2c(F)cc(-c3nc(Nc4cnn(C5CCN(C)CC5)c4)ncc3F)cc21 [Compound 497, 5-fluoro-4-(8-fluoro-4-isopropyl-3,4-dihydro-2H-benzo[b][1,4]oxazin-6-yl)-N-(1-(1-methylpiperidin-4-yl)-1H-pyrazol-4-yl)pyrimidin-2-amine] |  |  |  | 7.07 | 95 nM | 40 nM |  | 
405 nM | 435 nM | CC(C)N1CCOc2c(F)cc(-c3nc(Nc4ccc5c(c4)C(=O)NCC5)ncc3F)cc21 [Compound 502, 7-((5-fluoro-4-(8-fluoro-4-isopropyl-3,4-dihydro-2H-benzo[b][1,4]oxazin-6-yl)pyrimidin-2-yl)amino)-3,4-dihydroisoquinolin-1(2H)-one] | 7.55 | 7.92 | 7.13 | 7.16 |  |  |  | 
 |  | Fc1cnc(Nc2ccc(N3CCOCC3)cn2)nc1-c1cc(F)c2c(c1)N(C1CCC1)CCO2 [Compound 487, 4-(4-cyclobutyl-8-fluoro-3,4-dihydro-2H-benzo[b][1,4]oxazin-6-yl)-5-fluoro-N-(5-morpholinopyridin-2-yl)pyrimidin-2-amine] | 6.95 | 7.26 |  |  | 2170 nM | 615 nM | < 5.30 | < 4.30
20 nM | < 5 nM | CC(C)N1CCOc2c(F)cc(-c3nc(Nc4ccc(S(N)(=O)=O)cc4)ncc3F)cc21 [Compound 507, 4-((5-fluoro-4-(8-fluoro-4-isopropyl-3,4-dihydro-2H-benzo[b][1,4]oxazin-6-yl)pyrimidin-2-yl)amino)benzenesulfonamide] | 7.89 | 8.22 | 8.49 | 8.89 |  |  |  | 

Compound | IC50 [4, 9] | IC50 [6, 10] | pIC50 [1] | pIC50 [2] | pIC50 [3] | pIC50 [5] | IC50 [4, 11] | IC50 [6, 12] | pIC50 [7] | pIC50 [8]
CC(C)N1CCOc2c(F)cc(-c3nc(Nc4ccc(N5CCC(CN)CC5)cn4)ncc3F)cc21 [Compound 518, N-(5-(4-(aminomethyl)piperidin-1-yl)pyridin-2-yl)-5-fluoro-4-(8-fluoro-4-isopropyl-3,4-dihydro-2H-benzo[b][1,4]oxazin-6-yl)pyrimidin-2-amine] |  | 1020 nM | 7.55 | 8.40 | 6.25 | 5.93 | 1330 nM |  |  | 
CC(C)N1CCOc2c(F)cc(-c3nc(Nc4cc(C5CCN(C)CC5)n[nH]4)ncc3F)cc21 [Compound 499, 5-fluoro-4-(8-fluoro-4-isopropyl-3,4-dihydro-2H-benzo[b][1,4]oxazin-6-yl)-N-(3-(1-methylpiperidin-4-yl)-1H-pyrazol-5-yl)pyrimidin-2-amine] |  | 175 nM |  |  | 7.72 | 7.16 | 345 nM |  |  | 
